Laboratory results taken from patent US20170009242A1, “CRISPR-Mediated Genome Engineering for Protein Depletion” (Whitehead Institute for Biomedical Research, priority 2015, published 2017).

System: CENP-I-AID-EGFP fusion protein
Assay: Auxin-induced depletion of endogenously tagged CENP-I-AID-EGFP, immunofluorescence microscopy
Format: cell-based
Settings: osTIR1-expressing DLD-1 cells, interphase cell; IAA 500 μM for 12 hr; immunofluorescence (FIG. 3)
Protocol: DLD-1 cell lines were cultured as described previously in Dulbecco's Modified Eagle Medium (DMEM) supplemented with 10% fetal bovine serum (FBS), penicillin/streptomycin and 2 mM L-glutamine. Indole-3-acetic acid (IAA) (15148; Sigma) was dissolved in water and added to cells at a concentration of 500 μM for 12 hr. osTIR1-9Myc was cloned into the pBabe-puro vector and introduced into cell lines using retroviral delivery. Stable integrants were selected in puromycin and single clones isolated using single cell sorting. Western Blot analysis using an antibody raised against the Myc tag was used to determine the expression level of TIR1 protein in different clones. Rapidly growing clones with the high levels of osTIR1 expression were selected for further use. 2.5 ug each of pX330-GFP and the donor plasmid were co-transfected into osTIR1-9Myc expressing cells using Lipofectamine 2000 (Invitrogen) and OptiMEM according to the manufacturer's instructions. 24 h after transfection cells, were transferred to a 20 cm dish, and 48 h later cells were selected in […] G418 (Gibco) and 2 ug/ml puromycin to maintain the osTIR1. Colonies were harvested after 2 weeks and FACS sorted to isolate individual cells. […]

## O=C(O)Cc1c[nH]c2ccccc12 [IAA, Indole-3-acetic acid]
  CENP-I-AID-EGFP fusion protein at kinetochores upon addition of IAA: no longer observed
  associated proteins such as CENP-T at kinetochores upon addition of IAA: lost from kinetochores
